Measured values taken from PubChem BioAssay (NCI).
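Interpolation was linear, between the two tested concentrations surrounding the appropriate level; five concentrations were tested over 48 hours in 96-well plates. GI50 is the concentration that inhibits growth by half. TGI: total growth inhibition.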

These compounds were tested on MDA-MB-468 breast (assay: growth of human tumour cells (NCI), 48 h).
Work on `COc1cc(-c2c(C#N)c(N)n3c(nc4ccccc43)c2C#N)cc(Br)c1OC` yielded a GI50 of 5540 nM and a TGI greater than 100000 nM.
In the case of `C[C@]12CC[C@@H]3c4ccc(Oc5nc(N6CC6)nc(N6CC6)n5)cc4CC[C@H]3[C@@H]1CCC2=O`, the GI50 is reported as 2000 nM and the TGI is reported as 12600 nM.
Work on `Cn1cc(C2=C(c3cn(CCCN=C(N)N)c4ccccc34)C(=O)NC2=O)c2ccccc21` yielded a GI50 greater than 11200 nM and a TGI greater than 25000 nM.
In the case of `COc1ccc(-c2cc3c(nn2)-c2ccccc2C3=O)cc1`, the GI50 is reported as greater than 100000 nM and the TGI is reported as greater than 100000 nM.
In the case of `Cc1cc(C)cc(Nc2cc(C)nc3nc(C(F)(F)F)nn23)c1`, the GI50 is reported as 8300 nM and the TGI is reported as greater than 100000 nM.
In the case of `CN(C)CCNc1ccc2ncc(C#Cc3cncc(C(=O)Nc4ccc(CN5CCN(C)CC5)c(C(F)(F)F)c4)c3)n2n1`, the GI50 is reported as 617 nM and the TGI is reported as 1410 nM.
Work on `COc1cc(Cn2c(-c3ccccc3)cc3c2-c2oncc2CC3)cc(OC)c1OC` yielded a GI50 of 298 nM and a TGI of 2210 nM.
In the case of `Cc1[nH]c(N=Nc2ccccc2)nc1N=Nc1ccccc1`, the GI50 is reported as 1920 nM and the TGI is reported as 5990 nM.
`COc1ccc(C(=O)/C=C/c2cccnc2Nc2cc(OC)c(OC)c(OC)c2)cc1` was tested, and the GI50 was 551 nM and the TGI was 2760 nM.
With `CCCNC(=S)N/N=C(\C)c1ccccn1` the GI50 was less than 10 nM and the TGI was 109 nM.
Work on `CN1C(=O)N(c2ccccc2)C2N=C(N/N=C/c3ccccc3)SC21` (centres undefined) yielded a GI50 of 510 nM and a TGI greater than 100000 nM.
In the case of `COc1ccc(C2CC(=O)c3c(O)c(OC)c(OC)c(OC)c3O2)c(O)c1` (centres undefined), the GI50 is reported as 83.1 nM and the TGI is reported as 36900 nM.
Work on `C[C@]12CC[C@@H]3c4ccc(O)cc4CC[C@H]3[C@@H]1CC[C@@H]2NS(=O)(=O)c1ccc(C(F)(F)F)cc1` yielded a GI50 of 2180 nM and a TGI of 6230 nM.
`C=C1C(=O)O[C@H]2[C@H]1CC/C(COC(=O)/C=C\C(=O)NCc1ccc(Cn3c(=O)sn(-c4ccc(C#N)cc4)c3=O)cc1)=C\CC[C@@]1(C)O[C@@H]21` gave a GI50 of 735 nM and a TGI of 1670 nM.
Compound `COc1cccc(NCc2nnc(Nc3ccc(Cl)cc3)c3ccccc23)c1` has a GI50 of 1050 nM and a TGI of 4730 nM.
Work on `CC12CCCC(CC(=O)c3[nH]c4ccccc4c31)C2` (centres undefined) yielded a GI50 of 375 nM and a TGI of 4160 nM.
For `CCCCC/C=C/C/C=C/CCCCCCCC1=NC(C)(C)CN1C(C)C`, the GI50 was 1370 nM and the TGI was 2720 nM.
Compound `COC(=O)[C@]12CCC(C)(C)C[C@H]1C1=CC[C@@H]3[C@@]4(C)C/C(=C/c5cccnc5)C(=O)C(C)(C)[C@@H]4CC[C@@]3(C)[C@]1(C)CC2` has a GI50 of 12300 nM and a TGI of 47200 nM.
`Nc1nccc(-c2c(-c3ccc(F)cc3)ncn2CCCN2CCOCC2)n1` was tested, and the GI50 was greater than 6390 nM and the TGI was greater than 25000 nM.
Compound `O=C(CCCSc1nc(-c2ccc(Cl)cc2)cc(-c2ccc(Cl)cc2)n1)NO` has a GI50 of 1420 nM and a TGI of 3480 nM.
For `Cn1cc(-c2csc(-c3cccc(F)c3)n2)c2cccnc21`, the GI50 was 20000 nM and the TGI was 55600 nM.
In the case of `COc1ccc(-n2c(SCc3cc(OC)c(OC)c(OC)c3)nc3ccc(C)cc3c2=O)cc1`, the GI50 is reported as 3390 nM and the TGI is reported as 48300 nM.
`CCOC(=O)/C(O)=C(/C=NC(=S)c1ccncc1)C(=O)OCC` gave a GI50 greater than 100000 nM and a TGI greater than 100000 nM.
With `CCCCNC(=O)NS(=O)(=O)c1ccc(N2N=C(c3ccc(C)cc3C)CC2c2ccc(N(C)C)cc2)cc1` (centres undefined) the GI50 was 2220 nM and the TGI was 5820 nM.
For `NC(N)=NC(N)=Nc1cc2ccccc2c2ccccc12`, the GI50 was 2810 nM and the TGI was 14300 nM.
`O=C(C[C@@H](C(=O)NCc1cccc(C(F)(F)F)c1)N1C(=O)[C@@H](N2C(=O)OC[C@@H]2c2ccccc2)[C@H]1/C=C/c1ccccc1)NC1CCN(Cc2ccccc2)CC1` was tested, and the GI50 was 2660 nM and the TGI was 18400 nM.
With `CC(C)CSc1nc(Nc2ccccc2)c(C#N)c(-c2ccc(F)cc2)n1` the GI50 was 3070 nM and the TGI was 17400 nM.
Compound `COc1ccc(OC(=O)O[C@H]2[C@H](O[C@H]3[C@@H](O)COC(O[C@H]4C[C@H]5[C@@H]6CC=C7C[C@@H](O)CC[C@]7(C)[C@H]6CC[C@]5(C)[C@H]4[C@H](C)C(=O)CCC(C)C)[C@@H]3OC(C)=O)OC[C@@H](O)[C@@H]2O)cc1` (some centres undefined) has a GI50 of 37.3 nM and a TGI of 4940 nM.
Compound `C[C@]12CC[C@@H]3c4ccc(O)cc4C[C@@H](CCCCCCCCCS(=O)CCCC(F)(F)C(F)(F)F)[C@H]3[C@@H]1CC[C@@H]2O` (some centres undefined) has a GI50 greater than 100000 nM and a TGI greater than 100000 nM.
Work on `Cc1cc(C2CCCCC2)n(O)c(=O)c1` yielded a GI50 of 1720 nM and a TGI of 8960 nM.
In the case of `CC[C@H](C)[C@H](NC(=O)[C@H]1CCCCN1C)C(=O)N(C)[C@H](CCc1nc(C(=O)N[C@@H](Cc2ccccc2)C[C@H](C)C(=O)OC)cs1)C(C)C`, the GI50 is reported as 69.6 nM.
Compound `COc1ccc(S(=O)(=O)N(Cc2ccc3c(n2)C=CC(C)(C)O3)C2CCC2)cc1OC` has a GI50 of less than 10 nM and a TGI of less than 10 nM.
`COc1cc([C@@H]2c3cc4c(cc3C(O[C@@H]3O[C@@H]5CO[C@@H](c6cccs6)OC5[C@H](O)[C@H]3O)C3COC(=O)[C@@H]32)OCO4)cc(OC)c1O` (some centres undefined) was tested, and the GI50 was 91.4 nM and the TGI was 302 nM.
Compound `COc1ccc(-c2nc(-c3nc4ccc(C)cc4[nH]3)c3ccccn23)cc1` has a GI50 of 2320 nM and a TGI of 7130 nM.
`Cn1cc(C2=C(c3cn(C)c4c(N)cccc34)C(=O)NC2=O)c2ccccc21` was tested, and the GI50 was 1280 nM and the TGI was greater than 25000 nM.
